Several values for one entry are separate records, joined by “and”; a condition that tells them apart may be missing. Identical values can stand only once.
Assays:
[1] = Short-term and freeze/thaw stability of PGD2 in urine; type: physicochemical, human
Procedure: Urine samples were collected into plastic containers. Specimens were stored according to the following conditions: • Short Term Storage • Urine Frozen (≤−10° C. and ≤−55° C.): 8 days • Urine Refrigerated (2-8° C.): 3 days • Urine Room Temperature (15-30° C.): 3 days • Urine Freeze/Thaw (≤−10° C.): 6 Cycles • Long Term Storage • Urine Frozen (≤−10° C.): Stability testing in process • Shipping Conditions: • Urine Frozen (≤−10° C.):—on dry ice PGD2 was stable for at least 3 days at 4° C. and at room temperature and 8 days frozen (≤−10° C. or ≤−55° C.). PGD2 was stable for at least 6 freeze-thaw cycles (≤−10° C. or ≤−55° C.). [table]

[2] = Autosampler stability, urine assay; type: physicochemical; conditions: human urine assay, stored refrigerated for up to 3 days and 8 hours
Procedure: Autosampler stability. […] To validate autosampler stability a batch containing two sets of calibrators and QCs was processed as normal. After completion of assay processing the first set of calibrators, QCs, and normal urines was injected and analyzed. After analysis the assay batch was stored refrigerated in the autosampler prior to reinjection of the first set of samples and first time injection of the second set of calibrators and QCs. The 96-well plates containing the processed assay were stored refrigerated in the autosampler for approximately 3 days, 8 hours, and 36 minutes before injection was completed for all samples. Post-storage recoveries were based on target concentrations for the stored, first time injection samples. Reinjected samples were compared to initial injection results to determine recoveries. Autosampler study results met acceptance criteria. […] Assay batches stored refrigerated for up to 3 days and 8 hours were stable and suitable for first time injection or re-injection to determine Prostaglandin D2 concentrations in human urine.

[3] = Autosampler stability, serum assay; type: physicochemical; conditions: human serum assay, stored refrigerated for up to 3 days and 22 hours
Procedure: Autosampler stability. […] To validate autosampler stability a batch containing two sets of calibrators and QCs was processed as normal. After completion of assay processing the first set of calibrators and QCs was injected and analyzed. After analysis the assay batch was stored refrigerated in the autosampler prior to reinjection of the first set of samples and first time injection of the second set of calibrators and QCs. The 96-well plates containing the processed assay were stored refrigerated in the autosampler for approximately 3 days, 22 hours, and 16 minutes before injection was completed for all samples. Post-storage recoveries were based on target concentrations for the stored, first time injection samples. Reinjected samples were compared to initial injection results to determine recoveries. Autosampler study results met acceptance criteria. Assay batches stored refrigerated for up to 3 days and 22 hours are stable and suitable for first time injection or re-injection to determine Prostaglandin D2 concentrations in human serum.

[4] = Short-term and freeze/thaw stability in human serum; type: physicochemical; conditions: for Mean concentration at stability time point / Measured Concentration (replicates): Donors 1-3; for Measured Concentration (replicates): human serum
Procedure: Serum samples were collected into red top tubes and frozen immediately. Specimens were stored according to the following conditions: • Short Term Storage • Serum Frozen (≤−10° C. and ≤−55° C.): 7 days • Serum Refrigerated (2-8° C.): Strictly frozen storage.
Short-term and freeze/thaw stability. Sample stability was confirmed by testing human serum from three individual donors that was stored at each of the different conditions likely to be encountered in sample handling and laboratory analysis. […] An additional set of the freshly collected serum underwent up to 6 freeze/thaw cycles prior to stability testing. All serum stability samples and baseline stored samples were tested with freshly prepared calibrators. All testing was performed in triplicate.

[5] = Calibrator freeze/thaw stability; type: physicochemical; conditions: for replicates within 85-115% of the target: calibrator matrix
Procedure: Calibrator freeze/thaw stability. Calibrator freeze/thaw stability was examined by analyzing using an accuracy sample made in calibrator amatrix (A4 at 250 pg/mL). The accuracy sample underwent up to 6 freeze/thaw cycles prior to stability testing. Freeze/thaw cycles were performed as per Example 3. Times and temperatures were recorded on the incubation study stability forms. All testing was performed in triplicate. The target concentration for the accuracy sample was used to define acceptable ranges for measured concentrations after freeze/thaw cycles. For the first five freeze/thaw cycles, 100% of replicates were within 85-115% of the target (TABLE 15). For the sixth freeze/thaw cycle >60% of replicates were within 85-115% of the target (TABLE 15). […] Prostaglandin D2 is stable in calibrator matrix after 5 freeze/thaw cycles (6 total thaws).

human ovarian tumor cell = conditions: read-out: IC50, inhibition of human ovarian tumor cell proliferation; cited from earlier work
[6] = Freeze/Thaw (<−10° C.), 1 Cycle (2 Thaws)
[7] = Freeze/Thaw (<−10° C.), 2 Cycles (3 Thaws)
[8] = Refrigerated (2-8° C.), 3.5 Hours

## CCCCC[C@H](O)/C=C/[C@H]1C(=O)C[C@H](O)[C@@H]1C/C=C\CCCC(=O)O [PGD2, prostaglandin D2]
[1]; 4° C.
  stable for at least (time): at least 3 days
[1]; frozen (≤−10° C. or ≤−55° C.)
  stable for at least (time): ≥ 8 days
[1]; room temperature
  stable for at least (time): at least 3 days
[1]; ≤−10° C. or ≤−55° C.
  stable for at least (freeze-thaw cycles): at least 6 freeze-thaw cycles
[2]
  Autosampler stability of processed assay batches: stable
[3]
  Autosampler stability of processed assay batches: stable
[4]; [6]
  % of replicates within 85-115% of mean at baseline: 100.00%
  Measured Concentration (replicates): 23.2 pg/mL and 95.8 pg/mL and 52.9 pg/mL and 21.1 pg/mL and 107 pg/mL (2×) and 52.4 pg/mL and 23.4 pg/mL and 60.5 pg/mL
[4]; [7]
  % of replicates within 85-115% of mean at baseline: 77.78%
  Measured Concentration (replicates): 22.1 pg/mL and 93.3 pg/mL and 19.4 pg/mL and 51.4 pg/mL and 19.7 pg/mL and 92.0 pg/mL and 51.2 pg/mL
[4]; Freeze/Thaw (<−10° C.), 3 Cycles (4 Thaws)
  % of replicates within 85-115% of mean at baseline: 0.00%
[4]; Freeze/Thaw (<−10° C.), 6 Cycles (7 Thaws)
  % of replicates within 85-115% of mean at baseline: 0.00%
[4]; Frozen (<−55° C.), 7 Days
  % of replicates within 85-115% of mean at baseline: 100.00%
  Measured Concentration (replicates): 24.5 pg/mL (3×) and 119 pg/mL and 65.7 pg/mL and 121 pg/mL and 66.8 pg/mL and 122 pg/mL and 67.9 pg/mL
[4]; Frozen (≤−10° C.), 7 Days
  % of replicates within 85-115% of mean at baseline: 100.00%
  Measured Concentration (replicates): 23.3 pg/mL (2×) and 101 pg/mL and 53.8 pg/mL and 113 pg/mL (2×) and 57.9 pg/mL and 24.2 pg/mL and 62.3 pg/mL
[4]; Refrigerated (2-8° C.), 1 Day
  % of replicates within 85-115% of mean at baseline: 0.00%
[4]; Refrigerated (2-8° C.), 3 Days
  % of replicates within 85-115% of mean at baseline: 0.00%
  Mean concentration at stability time point: 3.83 pg/mL and 4.93 pg/mL and 3.33 pg/mL
[4]; [8]
  % of replicates within 85-115% of mean at baseline: 88.89%
  Measured Concentration (replicates): 103 pg/mL and 57.9 pg/mL and 20.9 pg/mL and 107 pg/mL and 57.6 pg/mL and 19.9 pg/mL and 93.5 pg/mL and 54.7 pg/mL
[4]; Refrigerated (2-8° C.), 7 Hours
  % of replicates within 85-115% of mean at baseline: 0.00%
[4]; Room Temp (15-30° C.), 1 Day
  % of replicates within 85-115% of mean at baseline: 0.00%
  Mean concentration at stability time point: 6.95 pg/mL and 4.42 pg/mL and 4.22 pg/mL
[4]; Room Temp (15-30° C.), 3 Days
  % of replicates within 85-115% of mean at baseline: 0.00%
  Mean concentration at stability time point: 9.17 pg/mL and 6.27 pg/mL and 5.78 pg/mL
[4]; Room Temp (15-30° C.), 3.5 Hours
  % of replicates within 85-115% of mean at baseline: 0.00%
[4]; Room Temp (15-30° C.), 7 Hours
  % of replicates within 85-115% of mean at baseline: 0.00%
[4]; frozen and refrigerated serum
  Short-term and freeze/thaw stability study result: did meet acceptance criteria
[4]; day of collection, time 0
  Measured Concentration (replicates): 21.9 pg/mL and 104 pg/mL and 60.4 pg/mL and 22.0 pg/mL and 107 pg/mL and 59.1 pg/mL and 24.7 pg/mL and 111 pg/mL and 55.6 pg/mL
[4]; serum stored at room temperature
  Short-term stability study result: did not meet acceptance criteria
[5]; accuracy sample A4 at 250 pg/mL
  stable in calibrator matrix after (freeze/thaw cycles): 5 freeze/thaw cycles
[5]; first five freeze/thaw cycles
  replicates within 85-115% of the target: 100%
[5]; sixth freeze/thaw cycle
  replicates within 85-115% of the target: > 60%
Human ovarian tumor cell
  IC50: 6.8 µM
